What was measured:
R15A [1] = target: T1, R15A (Homo sapiens, UniProt O75807); assay: Pull-down: binding of P-eIF2α to MBP-tagged R15A on amylose beads; details: 200 μM compound, 200 nM MBP-R15A, 1 μM P-eIF2α, 10 min 4° C.
T1 construct: PPP1R15A amino acids 325-636 (R15A); His6 (C); made in house; host or cells: E. coli BL21 pLysS
Method: (§1) Purified MBP-tagged regulatory subunits (200 nM), P-eIF2α (1 μM), PP1c ([…]), and 200 μM compounds, or DMSO vehicle, were added as appropriate to 20 μl amylose magnetic bead, pre-equilibrated with interaction buffer (50 mM Tris (pH 7.4), 200 mM NaCl, 0.05% Tween20) in 200 μl volume. All protein dilutions were carried out in interaction buffer. 5% input sample was removed, and added to 4× Laemmli sample buffer for later analysis. The beads were incubated for 10′ at 4° C. The supernatant was removed, and the beads were washed thoroughly with interaction buffer and then resuspended with 50 μl of 2× Laemmli sample buffer. Samples were run on 4-12% NuPAGE Bis-Tris gels (Life Technologies) and analysed by immunoblotting, using anti-MBP HRP (E8038) (NEB), anti-eIF2α (ab26197) (AbCam) or anti-PPP1A (ab137512) (AbCam) antibodies.

[2] = target: T2, PP1 (1 μM) in the presence of R15A (Homo sapiens, UniProt O75807); assay: In vitro dephosphorylation of P-eIF2α using stoichiometric PP1c (1 μM) with R15A; format: biochemical; details: 1 μM PP1c, 1 μM P-eIF2α, 30° C., 16 h; compounds 100 μM
T2 construct: PPP1R15A amino acids 325-636 (R15A); His6 (C); made in house; host or cells: E. coli BL21 pLysS (R15A, eIF2α); E. coli BL21/pGro7 (PP1c)
Method: PP1c was diluted to the appropriate concentration (as indicated in the figure legends) in dephosphorylation buffer immediately prior to use. Dephosphorylation reactions were carried out by pre-incubating diluted PP1c in the presence or absence of regulatory subunits (either […]), and/or compounds (all at 100 μM, except for Salubrinal which was used at 30 μM), for 15′ at RT. All compounds were diluted in DMSO, and DMSO vehicle was used in all control experiments.
The reaction was initiated by the addition of 1 μM P-eIF2α or ^33P Phosphorylase a substrates and then incubated at 30° C. for 16 h with shaking at 350 rpm. Reactions were stopped by addition of 4× Laemmli sample buffer. eIF2α samples were analyzed by immunoblotting or Phos-tag gels. […] Samples in FIG. 8 and FIG. 16 were run on a 15% SuperSep Phos-tag acrylamide gel (Alpha Laboratories) and visualized by staining with InstantBlue Protein Stain.

R15A [3] = target: T1, R15A; assay: Limited trypsin proteolysis of R15A (conformational change); details: 22° C.
Method: Reactions were allowed to proceed at 22° C. with shaking at 350 rpm. At time points 30 min, 1 h, 2 h or 3 h, 30 μl of sample was removed from the mix and digestion was stopped by addition of 10 μl of 16% SDS Laemmli sample buffer. Samples were run on 4-12% NuPAGE Bis-Tris gels (Life Technologies). Proteins were visualised by staining with InstantBlue Coomassie Protein Stain (Expedeon) protein stain.
Purified R15A and R15B were diluted to 3 μM in PBS, and incubated for 15′ at RT with 100 μM Raphin1, or DMSO vehicle. Reactions were initiated by addition of 5 nM of trypsin from bovine pancreas (Sigma), made up in PBS, and allowed to proceed for 5′ at 22° C., with shaking at 350 rpm. Digestion was stopped by addition of 4× Laemmli sample buffer and samples were run on 4-12% NuPAGE Bis-Tris gels (Life Technologies). Proteins were visualised by staining with InstantBlue Protein Stain.

R15B = target: T3, R15B (Homo sapiens, UniProt Q5SWA1); assay: Pull-down: binding of P-eIF2α to MBP-tagged R15B on amylose beads; details: 200 μM compound, 200 nM MBP-R15B, 1 μM P-eIF2α, 10 min 4° C.
T3 construct: PPP1R15B amino acids 340-698 (R15B); His6 (C); made in house; host or cells: E. coli BL21 pLysS
T3 sequence (Q5SWA1 340-698): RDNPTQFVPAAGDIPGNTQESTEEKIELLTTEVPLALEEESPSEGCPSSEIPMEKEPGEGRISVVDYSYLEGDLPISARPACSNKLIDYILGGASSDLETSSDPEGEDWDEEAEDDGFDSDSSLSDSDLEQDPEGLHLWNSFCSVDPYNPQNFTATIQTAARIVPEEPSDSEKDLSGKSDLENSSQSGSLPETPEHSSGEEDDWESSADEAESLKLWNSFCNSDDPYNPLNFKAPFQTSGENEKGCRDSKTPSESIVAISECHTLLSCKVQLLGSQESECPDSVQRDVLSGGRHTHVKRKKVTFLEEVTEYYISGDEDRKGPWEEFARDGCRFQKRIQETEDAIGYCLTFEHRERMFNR
Method: as §1

HeLa cells = assay: Cytoprotection of HeLa cells from Tunicamycin (ER) stress; format: cell-based; details: 250 ng/ml Tunicamycin, 72 h
Method: HeLa cells (40,000 cells/ml) were plated in a 96-well plate and treated with different concentrations of compound, as indicated, or DMSO vehicle in the presence of 250 ng/ml Tunicamycin for 72 h. To monitor cell death, 1/2000 dilution of the CellTox green dye (Promega) was added to the media. The growth of the cells was monitored over time and pictures taken every 2 h with the IncuCyte ZOOM system and analysed by the IncuCyte ZOOM software (Essen BioScience). To compare different compounds and their cytoprotective effect, a growth ratio for each time point was calculated:
Growth ratio=(Phase confluency (%) at X hours)/(Phase confluency (%) at 0 hours)
The end point of the assay (72 h) was chosen for generating the graphs.

T1 sequence (O75807 325-636, stated change not applied): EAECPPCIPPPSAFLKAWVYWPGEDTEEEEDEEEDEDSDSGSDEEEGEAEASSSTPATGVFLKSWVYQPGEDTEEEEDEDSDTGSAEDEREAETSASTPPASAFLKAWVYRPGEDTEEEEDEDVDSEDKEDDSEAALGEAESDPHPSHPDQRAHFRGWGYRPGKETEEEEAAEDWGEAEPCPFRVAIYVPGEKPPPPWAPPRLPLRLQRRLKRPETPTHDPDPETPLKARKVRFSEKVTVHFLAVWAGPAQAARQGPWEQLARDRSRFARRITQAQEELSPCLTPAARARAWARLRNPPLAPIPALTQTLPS
T2 sequence (O75807 325-636, stated change not applied): as above
T2 sequence (P62136 7-330 partner): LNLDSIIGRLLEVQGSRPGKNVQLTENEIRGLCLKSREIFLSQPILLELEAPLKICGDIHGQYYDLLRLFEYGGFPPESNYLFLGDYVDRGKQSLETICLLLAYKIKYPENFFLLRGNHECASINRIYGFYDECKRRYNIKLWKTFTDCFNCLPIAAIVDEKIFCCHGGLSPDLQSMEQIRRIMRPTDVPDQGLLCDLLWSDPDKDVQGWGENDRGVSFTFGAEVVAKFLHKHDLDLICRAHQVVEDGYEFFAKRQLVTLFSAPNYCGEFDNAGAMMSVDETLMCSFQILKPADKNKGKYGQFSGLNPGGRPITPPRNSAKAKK

SMILES	effect on binding of eIF2α to R15A (R15A [1])	effect on dephosphorylation of eIF2α by PP1c with R15A [2]	sensitivity of R15A to trypsin proteolysis (R15A [3]; 100 μM compound, 0.5 μM R15A, 2.5 nM trypsin, 30 min to 3 h)	effect on binding of eIF2α to R15B (R15B)	cytoprotection from ER stress (HeLa cells)	trypsin sensitivity of R15A (R15A [3]; 100 μM Raphin1, 3 μM R15A, 5 nM trypsin, 5 min)
N=C(N)N/N=C/c1c(Cl)cccc1Cl [Guanabenz]	decreased the binding of R15A to eIF2α	neither the selective R15A inhibitors, Guanabenz and Sephin1, nor the selective inhibitor of R15B, Raphin1, had any measurable effects	decreased the sensitivity of R15A to trypsin proteolysis	no such effect was observed	Dose dependent cytoprotection	
NC(N)=N/N=C/c1cccc(Cl)c1Cl [Raphin1]	this inhibition was not observed with R15A			decreased the binding of eIF2α to R15B		had no effect on the trypsin sensitivity of R15A

From patent US20200199647A1, “ASSAY FOR SCREENING MODULATORS OF HOLOPHOSPHATASE ACTIVITY” (UNITED KINGDOM RESEARCH AND INNOVATION, priority 2017, published 2020)
